From BindingDB's records for doi:10.1006/frne.1999.0183 (Royal Victoria Hospital, 1999)
Starred links: 1 amine or outer side, 2 acyl side, 3 side chain; linkers in the order of their positions; H or OH if unused. Non-standard residues stand in square brackets, D forms with d. Residues, ends and D or L forms follow the SMILES beside them. *: point of attachment. pNA = O=[N+]([O-])c1ccc(N*)cc1; Nle = CCCC[CH](N)C(=O)O; CO = O=C([*:1])[*:2]

Assays:
[1] = biological target: Somatostatin receptor type 3 (Homo sapiens, UniProt P32745)
[2] = biological target: Somatostatin receptor type 5 (Homo sapiens, UniProt P35346)
[3] = biological target: Somatostatin receptor type 2 (Homo sapiens, UniProt P30874)
[4] = biological target: Somatostatin receptor type 4 (Homo sapiens, UniProt P31391)
[5] = biological target: Somatostatin receptor type 1 (Homo sapiens, UniProt P30872)
Sequence of Somatostatin receptor type 1 (P30872 whole entry): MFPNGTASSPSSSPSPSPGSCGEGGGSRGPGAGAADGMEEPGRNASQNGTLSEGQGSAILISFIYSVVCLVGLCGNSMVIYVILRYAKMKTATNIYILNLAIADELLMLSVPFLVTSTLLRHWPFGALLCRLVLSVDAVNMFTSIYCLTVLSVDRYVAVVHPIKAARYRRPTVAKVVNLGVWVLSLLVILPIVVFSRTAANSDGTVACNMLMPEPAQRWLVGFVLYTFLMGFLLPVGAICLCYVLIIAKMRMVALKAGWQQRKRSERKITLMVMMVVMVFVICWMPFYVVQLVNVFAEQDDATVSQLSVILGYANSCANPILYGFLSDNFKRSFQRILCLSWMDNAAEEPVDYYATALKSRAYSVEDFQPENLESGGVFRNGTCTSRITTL

Sequence of Somatostatin receptor type 2 (P30874 whole entry): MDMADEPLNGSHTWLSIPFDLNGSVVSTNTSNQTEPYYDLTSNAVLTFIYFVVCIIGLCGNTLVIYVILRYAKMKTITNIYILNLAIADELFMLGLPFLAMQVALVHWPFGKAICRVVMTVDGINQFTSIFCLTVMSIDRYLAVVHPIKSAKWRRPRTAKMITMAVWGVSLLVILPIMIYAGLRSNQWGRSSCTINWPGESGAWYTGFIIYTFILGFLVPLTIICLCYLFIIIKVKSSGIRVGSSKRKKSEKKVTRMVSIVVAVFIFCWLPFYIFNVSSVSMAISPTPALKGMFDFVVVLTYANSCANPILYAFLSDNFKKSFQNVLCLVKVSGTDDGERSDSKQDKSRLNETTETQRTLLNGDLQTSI
Sequence of Somatostatin receptor type 3 (P32745 whole entry): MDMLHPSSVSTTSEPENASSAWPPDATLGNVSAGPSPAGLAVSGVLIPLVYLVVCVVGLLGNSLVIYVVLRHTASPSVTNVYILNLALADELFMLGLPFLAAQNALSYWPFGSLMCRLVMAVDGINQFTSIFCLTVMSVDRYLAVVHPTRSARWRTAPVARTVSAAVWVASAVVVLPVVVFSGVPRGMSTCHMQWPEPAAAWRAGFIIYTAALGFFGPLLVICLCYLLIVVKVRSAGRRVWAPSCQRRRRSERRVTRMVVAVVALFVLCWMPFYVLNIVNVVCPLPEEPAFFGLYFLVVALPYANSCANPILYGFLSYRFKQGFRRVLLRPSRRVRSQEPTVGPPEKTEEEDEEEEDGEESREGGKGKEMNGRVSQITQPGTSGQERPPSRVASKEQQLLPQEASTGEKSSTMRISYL
Sequence of Somatostatin receptor type 5 (P35346 whole entry): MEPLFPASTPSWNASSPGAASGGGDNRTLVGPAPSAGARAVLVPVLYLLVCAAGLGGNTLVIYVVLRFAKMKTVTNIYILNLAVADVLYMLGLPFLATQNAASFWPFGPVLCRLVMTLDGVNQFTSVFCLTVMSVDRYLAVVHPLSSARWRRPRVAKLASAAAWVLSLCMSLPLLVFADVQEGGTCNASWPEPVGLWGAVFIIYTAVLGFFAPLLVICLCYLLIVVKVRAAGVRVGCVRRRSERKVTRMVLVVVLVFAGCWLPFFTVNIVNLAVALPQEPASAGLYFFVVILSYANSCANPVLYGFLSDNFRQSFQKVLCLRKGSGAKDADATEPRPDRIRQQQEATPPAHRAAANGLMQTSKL
Sequence of Somatostatin receptor type 4 (P31391 whole entry): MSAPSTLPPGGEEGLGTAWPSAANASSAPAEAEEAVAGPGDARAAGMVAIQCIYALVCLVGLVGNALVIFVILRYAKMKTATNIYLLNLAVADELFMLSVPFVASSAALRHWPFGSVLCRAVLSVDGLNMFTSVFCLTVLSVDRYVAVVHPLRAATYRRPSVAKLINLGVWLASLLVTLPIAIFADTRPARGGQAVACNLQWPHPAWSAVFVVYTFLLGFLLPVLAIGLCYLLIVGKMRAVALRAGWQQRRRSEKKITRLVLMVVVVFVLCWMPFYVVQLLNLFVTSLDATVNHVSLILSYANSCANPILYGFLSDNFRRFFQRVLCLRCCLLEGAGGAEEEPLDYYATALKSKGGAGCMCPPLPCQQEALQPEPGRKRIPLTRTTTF

Row | Compound | Ki [1] | Ki [2] | Ki [3] | Ki [4] | Ki [5]
1 | CC(c1c[nH]c2ccccc12)C(NC(=O)N1CCC(n2c(=O)[nH]c3ccccc32)CC1)C(=O)NCC1CCCC(CN)C1 (stereo unspecified) [CAS_5311372] | 729 nM | 4260 nM | 0.05 nM | 310 nM | 2760 nM
2 | CCCCC(NC(=O)NC(Cc1ccccc1)C(=O)Nc1ccc([N+](=O)[O-])cc1)C(=O)NC(CCCCN)C(=O)OC (stereo unspecified) [CAS_5311373] ({pNA-Phe-CO}-[Nle]-Lys-OMe; configuration not given here) | 24 nM | 1200 nM | > 10000 nM | 8650 nM | 1260 nM
3 | CC(C)[C@@H]1NC(=O)[C@H](CCCCN)NC(=O)[C@@H](Cc2c[nH]c3ccccc23)NC(=O)[C@H](Cc2ccc(O)cc2)NC(=O)[C@H](C)N(C)C(=O)[C@H](Cc2ccccc2)NC1=O [seglitide] | 27 nM | – | – | – | 1000 nM
4 | CC(C)NCc1ccc(C[C@@H]2NC(=O)[C@@H](Cc3c[nH]c4ccccc34)NC(=O)[C@H](Cc3ccccc3)NC(=O)[C@H](Cc3ccccc3)NC(=O)[C@H](CCCCN)NC(=O)[C@@H](N)CSSC[C@@H](C(=O)O)NC(=O)[C@H](CO)NC(=O)[C@H]([C@@H](C)O)NC(=O)[C@H](Cc3ccccc3)NC(=O)[C@H]([C@@H](C)O)NC2=O)cc1 [CH-275] (HELM PEPTIDE1{C.K.F.F.[dW].[CC(C)NCc1ccc(C[C@H](N[*:1])C(=O)[*:2])cc1].T.F.T.S.C}$PEPTIDE1,PEPTIDE1,1:R3-11:R3$$$V2.0) | 1000 nM | 1000 nM | – | 4.3 nM | 3.2 nM
5 | CC(CCN)CC(C)(C)CNC(=O)[C@@H](Cc1cccc2ccccc12)NC(=O)N(CCc1ccccc1)CCc1ccccn1 (stereo partly drawn) [L-797591] | 2240 nM | 3600 nM | 1870 nM | 170 nM | 1.4 nM
6 | COC(=O)C(CCCNC(=N)N)NC(=O)CCCc1c(-c2ccccc2)[nH]c2c(F)cc(F)cc12 [L-803,087] | 1280 nM | 3880 nM | 4720 nM | 0.7 nM | 199 nM
7 | CSCC[C@H](NC(=O)[C@H](CCCN=C(N)N)NC(=O)[C@@H](N)CC(=O)O)C(=O)N1CCC[C@H]1C(=O)N[C@H]1CSSC[C@@H](C(=O)N[C@@H](CCCCN)C(=O)O)NC(=O)[C@H](CO)NC(=O)[C@H](CO)NC(=O)[C@H](Cc2ccccc2)NC(=O)[C@H]([C@@H](C)O)NC(=O)[C@H](CCCCN)NC(=O)[C@H](Cc2c[nH]c3ccccc23)NC(=O)[C@H](Cc2ccccc2)NC(=O)[C@H](Cc2ccccc2)NC(=O)[C@H](CC(N)=O)NC(=O)[C@H](CCCN=C(N)N)NC1=O [Cortistatin] | 0.6 nM | 0.4 nM | 0.6 nM | 0.5 nM | 7 nM
8 | C[C@H](N)COC(=O)[C@H](CCCCN)NC(=O)Cc1c(-c2ccc3ccccc3c2)[nH]c2c1ccc1ccccc12 | 64 nM | 0.4 nM | 52 nM | 82 nM | 3.3 nM
